Reference: ChEMBL document CHEMBL1201862, “PubChem BioAssay data set” (2004)
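Where inhibition never reached the appropriate level, the endpoint shown equals the highest concentration tested. Otherwise, values were interpolated linearly from a five-concentration, 48-hour dose response in 96-well plates. GI50: concentration for 50% inhibition of growth.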 The source made the active and inactive calls. Cut-off read from the data, not from the text of the source: active = GI50 up to about 1.1 µM and inactive = higher.

Columns and labels:
Assay in all cases: inhibition of tumour cell growth, NCI panel, 48 h
KM12 = system: KM12
OVCAR-5 = system: OVCAR-5
M14 = system: M14
MDA-MB-231 = system: MDA-MB-231
MOLT-4 = system: MOLT-4
A549 = system: A549
SN12C = system: SN12C
OVCAR-3 = system: OVCAR-3
RXF 393 = system: RXF 393
HOP-92 = system: HOP-92
TK-10 = system: TK-10
PC-3 = system: PC-3
UACC-257 = system: UACC-257
IGROV-1 = system: IGROV-1
HCT-116 = system: HCT-116
786-0 = system: 786-0
NCI-H460 = system: NCI-H460
SK-MEL-5 = system: SK-MEL-5
HCT-15 = system: HCT-15
SF-295 = system: SF-295
BT-549 = system: BT-549
OVCAR-4 = system: OVCAR-4
RPMI-8226 = system: RPMI-8226
SK-OV-3 = system: SK-OV-3
MCF7 = system: MCF7
EKVX = system: EKVX
SK-MEL-28 = system: SK-MEL-28
T47D = system: T47D
NCI/ADR-RES = system: NCI/ADR-RES
CCRF-CEM = system: CCRF-CEM
SW-620 = system: SW-620
SF-539 = system: SF-539
SNB-19 = system: SNB-19
SF-268 = system: SF-268
HCC 2998 = system: HCC 2998
MDA-MB-435 = system: MDA-MB-435
U-251 = system: U-251
NCI-H23 = system: NCI-H23
OVCAR-8 = system: OVCAR-8
SNB-75 = system: SNB-75
LOX IMVI = system: LOX IMVI
ACHN = system: ACHN
UO-31 = system: UO-31
A498 = system: A498
HOP-62 = system: HOP-62
CAKI-1 = system: CAKI-1
K562 = system: K562
MDA-N = system: MDA-N
SK-MEL-2 = system: SK-MEL-2
NCI-H226 = system: NCI-H226
COLO 205 = system: COLO 205
NCI-H522 = system: NCI-H522
HT-29 = system: HT-29
UACC-62 = system: UACC-62
SR = system: SR
DU-145 = system: DU-145
HL-60 = system: HL-60

Compound: CC(C)(C)C(=O)Nc1c(C=O)ccc2[nH]cnc12
- GI50 (KM12): 80.4 µM (inactive)
- GI50 (OVCAR-5): > 100 µM (inactive)
- GI50 (M14): > 100 µM (inactive)
- GI50 (MDA-MB-231): > 100 µM (inactive)
- GI50 (MOLT-4): 30.5 µM (inactive)
- GI50 (A549): > 100 µM (inactive)
- GI50 (SN12C): > 100 µM (inactive)
- GI50 (OVCAR-3): 80.9 µM (inactive)
- GI50 (RXF 393): > 100 µM (inactive)
- GI50 (HOP-92): > 100 µM (inactive)
- GI50 (TK-10): > 100 µM (inactive)
- GI50 (PC-3): 74.3 µM (inactive)
- GI50 (UACC-257): 91.4 µM (inactive)
- GI50 (IGROV-1): > 100 µM (inactive)
- GI50 (HCT-116): > 100 µM (inactive)
- GI50 (786-0): > 100 µM (inactive)
- GI50 (NCI-H460): > 100 µM (inactive)
- GI50 (SK-MEL-5): 78.7 µM (inactive)
- GI50 (HCT-15): > 100 µM
- GI50 (SF-295): > 100 µM (inactive)
- GI50 (BT-549): > 100 µM (inactive)
- GI50 (OVCAR-4): > 100 µM (inactive)
- GI50 (RPMI-8226): 89.9 µM (inactive)
- GI50 (SK-OV-3): > 100 µM (inactive)
- GI50 (MCF7): 60.1 µM (inactive)
- GI50 (EKVX): > 100 µM (inactive)
- GI50 (SK-MEL-28): > 100 µM (inactive)
- GI50 (T47D): > 100 µM (inactive)
- GI50 (NCI/ADR-RES): > 100 µM (inactive)
- GI50 (CCRF-CEM): 33.3 µM (inactive)
- GI50 (SW-620): > 100 µM (inactive)
- GI50 (SF-539): > 100 µM (inactive)
- GI50 (SNB-19): > 100 µM (inactive)
- GI50 (SF-268): > 100 µM (inactive)
- GI50 (HCC 2998): > 100 µM (inactive)
- GI50 (MDA-MB-435): > 100 µM (inactive)
- GI50 (U-251): 82.4 µM (inactive)
- GI50 (NCI-H23): > 100 µM (inactive)
- GI50 (OVCAR-8): > 100 µM (inactive)
- GI50 (SNB-75): > 100 µM (inactive)
- GI50 (LOX IMVI): 62.8 µM (inactive)
- GI50 (ACHN): > 100 µM (inactive)
- GI50 (UO-31): > 100 µM (inactive)
- GI50 (A498): > 100 µM (inactive)
- GI50 (HOP-62): 61.8 µM (inactive)
- GI50 (CAKI-1): 75.7 µM (inactive)
- GI50 (K562): 42.8 µM (inactive)
- GI50 (MDA-N): > 100 µM (inactive)
- GI50 (SK-MEL-2): > 100 µM (inactive)
- GI50 (NCI-H226): > 100 µM (inactive)
- GI50 (COLO 205): > 100 µM (inactive)
- GI50 (NCI-H522): > 100 µM (inactive)

Compound: CCOC(OCC)[C@@H]1C[C@@H]2N(O[C@H](OC3CCCC3(c3ccccc3)c3ccccc3)[C@H](OC(C)=O)[C@@]2(CC)Cc2ccc(OC)c(OC)c2)O1 (stereo partly specified)
- GI50 (KM12): > 100 µM (inactive)
- GI50 (OVCAR-5): > 100 µM (inactive)
- GI50 (M14): > 100 µM (inactive)
- GI50 (MDA-MB-231): > 100 µM (inactive)
- GI50 (MOLT-4): > 100 µM (inactive)
- GI50 (HT-29): > 100 µM (inactive)
- GI50 (UACC-62): > 100 µM (inactive)
- GI50 (A549): > 100 µM (inactive)
- GI50 (SN12C): > 100 µM (inactive)
- GI50 (OVCAR-3): > 100 µM (inactive)
- GI50 (RXF 393): > 100 µM (inactive)
- GI50 (TK-10): > 100 µM (inactive)
- GI50 (PC-3): > 100 µM (inactive)
- GI50 (UACC-257): > 100 µM (inactive)
- GI50 (IGROV-1): > 100 µM (inactive)
- GI50 (HCT-116): > 100 µM (inactive)
- GI50 (786-0): > 100 µM (inactive)
- GI50 (NCI-H460): > 100 µM (inactive)
- GI50 (SK-MEL-5): > 100 µM (inactive)
- GI50 (HCT-15): > 100 µM
- GI50 (SF-295): > 100 µM (inactive)
- GI50 (SR): 84.7 µM (inactive)
- GI50 (BT-549): > 100 µM (inactive)
- GI50 (OVCAR-4): > 100 µM (inactive)
- GI50 (SK-OV-3): > 100 µM (inactive)
- GI50 (MCF7): > 100 µM (inactive)
- GI50 (EKVX): > 100 µM (inactive)
- GI50 (SK-MEL-28): > 100 µM (inactive)
- GI50 (T47D): > 100 µM (inactive)
- GI50 (NCI/ADR-RES): > 100 µM (inactive)
- GI50 (CCRF-CEM): > 100 µM (inactive)
- GI50 (SW-620): > 100 µM (inactive)
- GI50 (SF-539): > 100 µM (inactive)
- GI50 (SNB-19): > 100 µM (inactive)
- GI50 (SF-268): > 100 µM (inactive)
- GI50 (HCC 2998): > 100 µM (inactive)
- GI50 (MDA-MB-435): > 100 µM (inactive)
- GI50 (U-251): > 100 µM (inactive)
- GI50 (NCI-H23): > 100 µM (inactive)
- GI50 (SNB-75): > 100 µM (inactive)
- GI50 (LOX IMVI): > 100 µM (inactive)
- GI50 (DU-145): > 100 µM (inactive)
- GI50 (ACHN): > 100 µM (inactive)
- GI50 (UO-31): > 100 µM (inactive)
- GI50 (HOP-62): > 100 µM (inactive)
- GI50 (CAKI-1): > 100 µM (inactive)
- GI50 (K562): > 100 µM (inactive)
- GI50 (MDA-N): > 100 µM (inactive)
- GI50 (SK-MEL-2): > 100 µM (inactive)
- GI50 (NCI-H226): > 100 µM (inactive)
- GI50 (COLO 205): > 100 µM (inactive)
- GI50 (NCI-H522): > 100 µM (inactive)

Compound: COc1cccc(C(C#N)NNC(=O)c2c(Cl)c(Cl)c(Cl)c(Cl)c2-c2nc3cc(C(=O)c4ccccc4)ccc3[nH]2)c1O (stereo unspecified)
- GI50 (KM12): 3.64 µM (inactive)
- GI50 (OVCAR-5): 18.6 µM (inactive)
- GI50 (M14): 3.66 µM (inactive)
- GI50 (MDA-MB-231): 4.15 µM (inactive)
- GI50 (MOLT-4): 2.78 µM (inactive)
- GI50 (HT-29): 4.91 µM (inactive)
- GI50 (A549): 4.06 µM (inactive)
- GI50 (SN12C): 2.7 µM (inactive)
- GI50 (OVCAR-3): 2.2 µM (inactive)
- GI50 (RXF 393): 2.17 µM (inactive)
- GI50 (HOP-92): 9.2 µM (inactive)
- GI50 (TK-10): 7.71 µM (inactive)
- GI50 (PC-3): 3.62 µM (inactive)
- GI50 (UACC-257): 9.02 µM (inactive)
- GI50 (IGROV-1): 5.77 µM (inactive)
- GI50 (HCT-116): 4 µM (inactive)
- GI50 (786-0): 4.06 µM (inactive)
- GI50 (SK-MEL-5): 2.71 µM (inactive)
- GI50 (HCT-15): 4.06 µM
- GI50 (SF-295): 1.74 µM (inactive)
- GI50 (SR): 2.91 µM (inactive)
- GI50 (BT-549): 6.37 µM (inactive)
- GI50 (OVCAR-4): 3.09 µM (inactive)
- GI50 (RPMI-8226): 3.55 µM (inactive)
- GI50 (SK-OV-3): 3.03 µM (inactive)
- GI50 (MCF7): 3.22 µM (inactive)
- GI50 (EKVX): 14.3 µM (inactive)
- GI50 (HL-60): 3.59 µM (inactive)
- GI50 (SK-MEL-28): 9.73 µM (inactive)
- GI50 (T47D): 2.79 µM (inactive)
- GI50 (NCI/ADR-RES): 2.54 µM (inactive)
- GI50 (CCRF-CEM): 3.2 µM (inactive)
- GI50 (SW-620): 6.01 µM (inactive)
- GI50 (SF-539): 2.63 µM (inactive)
- GI50 (SNB-19): 4.63 µM (inactive)
- GI50 (MDA-MB-435): 1.81 µM (inactive)
- GI50 (U-251): 4.44 µM (inactive)
- GI50 (NCI-H23): 5.74 µM (inactive)
- GI50 (OVCAR-8): 11.3 µM (inactive)
- GI50 (SNB-75): 2 µM (inactive)
- GI50 (LOX IMVI): 5.19 µM (inactive)
- GI50 (DU-145): 6.4 µM (inactive)
- GI50 (ACHN): 6.44 µM (inactive)
- GI50 (UO-31): 6.84 µM (inactive)
- GI50 (A498): 2.05 µM (inactive)
- GI50 (HOP-62): 2.03 µM (inactive)
- GI50 (CAKI-1): 6.25 µM (inactive)
- GI50 (K562): 3.27 µM (inactive)
- GI50 (MDA-N): 1.68 µM (inactive)
- GI50 (SK-MEL-2): 4.05 µM (inactive)
- GI50 (NCI-H226): 3 µM (inactive)
- GI50 (COLO 205): 3.24 µM (inactive)
